# Entries after “also recorded” stand apart in the source; their conditions may differ.
# What was measured:
# [1] = Sustacal meal with intravenous GLIP infusion 1.2 pm/kg/min in remission phase Type I diabetes (Example 1); type: in vivo, human; conditions: IV GLIP 1.2 pm/kg/min for 120 min after Sustacal meal
# Method: 7 subjects with remission phase Type I diabetes were studied after ingestion of a standardised meal of Sustacal (Upjohn) (delivering […]). Subjects continued their normal insulin treatment programme on the day prior to the test and, on the day of the test, omitted their morning insulin injection and arrived fasting at 8:00 am. […] Infusion was continued for 120 minutes. Blood levels of glucose, C-peptide, gastrin, glucagon and HPP were monitored by standard radioimmunoassay methods in samples taken before and at intervals during the study, up to 180 minutes. On another test day, subjects were given the Sustacal meal alone and the same analytes were similarly monitored.
# [2] = Intravenous glucose infusion with intravenous GLIP in remission phase Type I diabetes (Example 2); type: in vivo, human; conditions: IV GLIP 1.2 pm/kg/min for 60 min with IV glucose 20 g over 60 min, FIG. 2
# Method: Four subjects with remission phase Type I diabetes were studied during intravenous glucose infusion. Subjects prepared for the tests as described in Example 1, but received an intravenous infusion of glucose (20 g over 60 min. constant rate)instead of the Sustacal meal. […] Blood levels of glucose and C-peptide were monitored as in Example 1.
# [3] = Sustacal meal preceded by subcutaneous GLIP injection in normal volunteers (Example 4); type: in vivo, human; conditions: for delay in increase in blood levels of glucose, HPP, C-peptide and insulin: compared with the first dose
# Method: 7 normal volunteers were studied after ingestion of a Sustacal meal either alone or immediately preceded by a subcutaneous injection of 1.00 μg GLIP.
# [4] = Sustacal meal preceded by subcutaneous GLIP injection in Type I diabetic subjects (Example 5); type: in vivo, human; conditions: Type I diabetics, 100 μg GLIP subcutaneously before Sustacal meal
# Text: 7 Type I diabetic subjects were studied.
# [5] = 50 μg GLIP plus 5 units insulin (half the usual dose) subcutaneously before Sustacal meal; one subject; FIG. 6 Panel A
# Text: One Type 1 diabetic subject was given GLIP along with insulin and the effects on post-prandial glycaemia observed. […] Blood levels of GLIP were monitored by a standard radioimmunoassay method.
# [6] = Sustacal meal with GLIP infusion 0.75 pm/kg/min in remission phase Type I diabetes (Example 3); type: in vivo, human; conditions: GLIP 0.75 pmol/kg/min for 120 min with Sustacal meal, versus saline infusion; FIG. 3
# Method: The test was conducted as described in Example 1 and blood glucose and C-peptide levels were measured. On a further test day, the subjects were studied during saline infusion after a similar Sustacal meal.
substance,measurement,setting,value
Glucagon-like peptide 1(7-36)amide [GLIP],blood levels of C-peptide,[1],prevented a significant increase in blood levels of C-peptide
same,plasma glucagon levels stimulated by the meal,[1],prevented the mean rise in plasma glucagon levels
same,control of blood glucose level after a meal,[1]; FIG. 1 Panel A,excellent control of blood glucose level
same,pancreatic polypeptide (PP) response to meal,[1]; FIG. 1 Panel C,this response was absent during GLIP infusion
same,gastrin response / gastrin levels,[1]; FIG. 1 Panel E,normal gastrin response; also recorded: not significantly affected
same,control of blood glucose level,[2],improved control of blood glucose level
same,secretion of endogenous insulin,[2],stimulated secretion of endogenous insulin
same,"delay in increase in blood levels of glucose, HPP, C-peptide and insulin",[3]; 50 μg GLIP,proportionally shorter
same,"delay in increase in blood levels of glucose, HPP, C-peptide and insulin",[3]; 200 μg GLIP,longer delays
same,"increase in blood levels of glucose, HPP, C-peptide and insulin","[3]; subcutaneous GLIP (1.00 μg as printed elsewhere in the source) before Sustacal meal, FIG. 4",A delay in increase
same,blood glucose levels compared to control,"[4]; no morning insulin, FIG. 5 Panel A",lowering of blood glucose levels
same,pancreatic polypeptide (HPP) levels,[4]; FIG. 5 Panel D,delayed rise in pancreatic polypeptide (HPP) levels
same,"insulin secretion (C-peptide, insulin)",[4]; FIG. 5 Panels B and C,no enhancement of insulin secretion over control levels
same,blood glucose after standard meal (maximum),[5],≤ 8 mM
same,C-peptide after meal,[6],rise in C-peptide was similar to the control experiment
same,blood glucose after meal,[6],increase in glucose was less than in the control experiment

# From patent US20020160008A1, “TREATMENT OF DIABETES” (priority 1994, published 2002)
